According to patent publication US6737383B1, “Herbicidal oxadiazolidines” (priority 1999, dated 2004):

Legend:
wild oat [1] = experiment: Test B pre/postemergence wild oat; type: in vivo, Avena fatua
In short: (§1)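 Response is a visual 0-to-10 score relative to untreated plants, where 0 means no effect and 10 means complete control, taken twelve to sixteen days after application. Treatments went onto soil at planting and onto foliage of 1- to 4-leaf plants, using a surfactant-containing non-phytotoxic solvent.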

morningglory = experiment: Test B pre/postemergence morningglory; type: in vivo, Ipomoea hederacea
In short: as §1

blackgrass = experiment: Test E blackgrass; type: in vivo, Alopecurus myosuroides; details: Preemergence; for Blackgrass plant response rating (0 to 100 scale): Rate 250 g/ha
winter barley = experiment: Test E winter barley; type: in vivo, Hordeum vulgare; details: Preemergence; for Barley (winter) plant response rating (0 to 100 scale): Rate 250 g/ha
winter wheat [2] = experiment: Test E winter wheat; type: in vivo, Triticum aestivum; details: Postemergence; for Wheat (winter) plant response rating: Rate 250 g/ha
In short: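 Postemergence: spray at 1–4 leaf stage, soil 60:40 sandy loam:potting mix; solvent + surfactant formulation; greenhouse 21–28 d; visual injury vs untreated controls.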

Italian ryegrass = experiment: Test E Italian ryegrass; type: in vivo, Lolium multiflorum; details: Preemergence; for I. Ryegrass plant response rating (0 to 100 scale): Rate 250 g/ha
green foxtail = experiment: Test E green foxtail; type: in vivo, Setaria viridis; details: Preemergence; for Green foxtail plant response rating (0 to 100 scale): Rate 250 g/ha
winter wheat [3] = experiment: Test E winter wheat; type: in vivo, Triticum aestivum; details: Preemergence; for Wheat (winter) plant response rating (0 to 100 scale): Rate 250 g/ha
wild oat [4] = experiment: Test E wild oat; type: in vivo, Avena fatua; details: Preemergence; for Wild oat plant response rating (0 to 100 scale): Rate 250 g/ha
bedstraw = experiment: Test B pre/postemergence bedstraw; type: in vivo, Galium aparine
In short: as §1

velvetleaf = experiment: Test B pre/postemergence velvetleaf; type: in vivo, Abutilon theophrasti
In short: as §1

[5] = Preemergence, Rate 62 g/ha, scale of 0 to 10 where 0 is no effect and 10 is complete control
[6] = Preemergence, Rate 250 g/ha, scale of 0 to 10 where 0 is no effect and 10 is complete control
[7] = Preemergence, Rate 500 g/ha, scale of 0 to 10 where 0 is no effect and 10 is complete control
[8] = Rate 62 g/ha, Postemergence, scale of 0 to 10 where 0 is no effect and 10 is complete control
[9] = Rate 125 g/ha, Postemergence, scale 0 to 10
[10] = Rate 125 g/ha, Preemergence, scale of 0 to 10 where 0 is no effect and 10 is complete control
[11] = Rate 500 g/ha, Postemergence, scale 0 to 10, 0 no effect, 10 complete control
[12] = Rate 500 g/ha, 0 to 100 scale where 0 is no effect and 100 is complete control
[13] = Rate 1000 g/ha, 0 to 100 scale, 0 no effect, 100 complete control
[14] = Rate 1000 g/ha, 0 to 100 scale where 0 is no effect and 100 is complete control
[15] = 0 to 100 scale where 0 is no effect and 100 is complete control
[16] = Rate 500 g/ha, 0 to 100 scale, 0 is no effect, 100 is complete control

## Cc1ccccc1N(C(=O)n1oc(=O)n(-c2ccccc2C)c1=O)C(C)C [Compound 236]
Wild oat [1]; [5]
  Wild oats plant response rating: 0
Wild oat [1]; [6]
  Wild oats plant response rating: 0
Wild oat [1]; [7]
  Plant response rating, Wild oats: 2
Wild oat [1]; [8]
  Wild oats plant response rating: 0
Wild oat [1]; [9]
  Wild oats plant response rating: 0
Wild oat [1]; [10]
  Wild oats plant response rating: 0
Wild oat [1]; Rate 250 g/ha, Postemergence
  Plant response rating (0 to 10; 0 is no effect, 10 is complete control), Wild oats: 0
Wild oat [1]; [11]
  Wild oats plant response rating: 0
morningglory; [5]
  Morningglory plant response rating: 0
morningglory; [6]
  Morningglory plant response rating: 0
morningglory; [7]
  Plant response rating, Morningglory: 0
morningglory; [8]
  Morningglory plant response rating: 4
morningglory; [9]
  Morningglory plant response rating: 4
morningglory; [10]
  Morningglory plant response rating: 0
morningglory; Rate 250 g/ha, Postemergence
  Plant response rating (0 to 10; 0 is no effect, 10 is complete control), Morningglory: 5
morningglory; [11]
  Morningglory plant response rating: 6
blackgrass
  Blackgrass plant response rating (0 to 100 scale): 60
blackgrass; [12]
  Plant response rating, Blackgrass: 60
blackgrass; [13]
  Plant response rating, Blackgrass: 70
Winter barley
  Barley (winter) plant response rating (0 to 100 scale): 20
Winter barley; [12]
  Plant response rating, Barley (winter): 40
Winter barley; [13]
  Plant response rating, Barley (winter): 50
Winter wheat [2]; [14]
  Plant response rating, Wheat (winter): 10
Winter wheat [2]; [15]
  Wheat (winter) plant response rating: 0
Winter wheat [2]; [16]
  Plant response rating, Wheat (winter): 0
Italian ryegrass
  I. Ryegrass plant response rating (0 to 100 scale): 20
Italian ryegrass; [12]
  Plant response rating, I. Ryegrass: 40
Italian ryegrass; [13]
  Plant response rating, I. Ryegrass: 55
Green foxtail
  Green foxtail plant response rating (0 to 100 scale): 85
Green foxtail; [12]
  Plant response rating, Green foxtail: 100
Green foxtail; [13]
  Plant response rating, Green foxtail: 100
Winter wheat [3]
  Wheat (winter) plant response rating (0 to 100 scale): 0
Winter wheat [3]; [12]
  Plant response rating, Wheat (winter): 10
Winter wheat [3]; [13]
  Plant response rating, Wheat (winter): 20
Wild oat [4]
  Wild oat plant response rating (0 to 100 scale): 20
Wild oat [4]; [12]
  Plant response rating, Wild oat: 30
Wild oat [4]; [13]
  Plant response rating, Wild oat: 50
bedstraw; [5]
  Bedstraw plant response rating: 0
bedstraw; [6]
  Bedstraw plant response rating: 0
bedstraw; [7]
  Plant response rating, Bedstraw: 0
bedstraw; [8]
  Bedstraw plant response rating: 0
bedstraw; [9]
  Bedstraw plant response rating: 0
bedstraw; [10]
  Bedstraw plant response rating: 0
bedstraw; Rate 250 g/ha, Postemergence
  Plant response rating (0 to 10; 0 is no effect, 10 is complete control), Bedstraw: 0
bedstraw; [11]
  Bedstraw plant response rating: 4
velvetleaf; [5]
  Velvetleaf plant response rating: 0
velvetleaf; [6]
  Velvetleaf plant response rating: 0
velvetleaf; [7]
  Plant response rating, Velvetleaf: 0
velvetleaf; [8]
  Velvetleaf plant response rating: 0
velvetleaf; [9]
  Velvetleaf plant response rating: 0
velvetleaf; [10]
  Velvetleaf plant response rating: 0
velvetleaf; Rate 250 g/ha, Postemergence
  Plant response rating (0 to 10; 0 is no effect, 10 is complete control), Velvetleaf: 1
velvetleaf; [11]
  Velvetleaf plant response rating: 3

## CC(C)N(C(=O)n1oc(=O)n([C@H](C)c2ccccc2)c1=O)c1ccc(F)cc1F [Compound 238]
Wild oat [1]; [5]
  Wild oats plant response rating: 0
Wild oat [1]; [6]
  Wild oats plant response rating: 0
Wild oat [1]; [7]
  Plant response rating, Wild oats: 3
Wild oat [1]; [8]
  Wild oats plant response rating: 0
Wild oat [1]; [10]
  Wild oats plant response rating: 0
Wild oat [1]; [11]
  Wild oats plant response rating: 0
morningglory; [5]
  Morningglory plant response rating: 0
morningglory; [6]
  Morningglory plant response rating: 0
morningglory; [7]
  Plant response rating, Morningglory: 3
morningglory; [8]
  Morningglory plant response rating: 2
morningglory; [10]
  Morningglory plant response rating: 0
morningglory; Rate 250 g/ha, Postemergence
  Plant response rating (0 to 10; 0 is no effect, 10 is complete control), Morningglory: 3
morningglory; [11]
  Morningglory plant response rating: 5
blackgrass
  Blackgrass plant response rating (0 to 100 scale): 50
blackgrass; [13]
  Plant response rating, Blackgrass: 75
Winter barley
  Barley (winter) plant response rating (0 to 100 scale): 40
Winter barley; [13]
  Plant response rating, Barley (winter): 30
Winter wheat [2]; [14]
  Plant response rating, Wheat (winter): 40
Winter wheat [2]; [15]
  Wheat (winter) plant response rating: 60
Italian ryegrass
  I. Ryegrass plant response rating (0 to 100 scale): 50
Italian ryegrass; [13]
  Plant response rating, I. Ryegrass: 85
Green foxtail
  Green foxtail plant response rating (0 to 100 scale): 70
Green foxtail; [13]
  Plant response rating, Green foxtail: 100
Winter wheat [3]
  Wheat (winter) plant response rating (0 to 100 scale): 40
Winter wheat [3]; [13]
  Plant response rating, Wheat (winter): 50
Wild oat [4]
  Wild oat plant response rating (0 to 100 scale): 50
Wild oat [4]; [13]
  Plant response rating, Wild oat: 50
bedstraw; [5]
  Bedstraw plant response rating: 0
bedstraw; [6]
  Bedstraw plant response rating: 0
bedstraw; [7]
  Plant response rating, Bedstraw: 3
bedstraw; [8]
  Bedstraw plant response rating: 0
bedstraw; [9]
  Bedstraw plant response rating: 2
bedstraw; [10]
  Bedstraw plant response rating: 0
bedstraw; Rate 250 g/ha, Postemergence
  Plant response rating (0 to 10; 0 is no effect, 10 is complete control), Bedstraw: 8
bedstraw; [11]
  Bedstraw plant response rating: 8
velvetleaf; [5]
  Velvetleaf plant response rating: 0
velvetleaf; [6]
  Velvetleaf plant response rating: 0
velvetleaf; [7]
  Plant response rating, Velvetleaf: 3
velvetleaf; [8]
  Velvetleaf plant response rating: 1
velvetleaf; [10]
  Velvetleaf plant response rating: 0
velvetleaf; [11]
  Velvetleaf plant response rating: 2

## CC(C)N(C(=O)n1oc(=O)n(CC(C)(C)C)c1=O)c1ccc(F)cc1 [Compound 246]
Wild oat [1]; [5]
  Wild oats plant response rating: 2
Wild oat [1]; [6]
  Wild oats plant response rating: 6
Wild oat [1]; [7]
  Plant response rating, Wild oats: 8
Wild oat [1]; [10]
  Wild oats plant response rating: 3
Wild oat [1]; [11]
  Wild oats plant response rating: 0
morningglory; [5]
  Morningglory plant response rating: 0
morningglory; [6]
  Morningglory plant response rating: 0
morningglory; [7]
  Plant response rating, Morningglory: 0
morningglory; [10]
  Morningglory plant response rating: 0
morningglory; Rate 250 g/ha, Postemergence
  Plant response rating (0 to 10; 0 is no effect, 10 is complete control), Morningglory: 9
morningglory; [11]
  Morningglory plant response rating: 9
blackgrass
  Blackgrass plant response rating (0 to 100 scale): 60
blackgrass; [12]
  Plant response rating, Blackgrass: 100
blackgrass; [13]
  Plant response rating, Blackgrass: 100
Winter barley
  Barley (winter) plant response rating (0 to 100 scale): 40
Winter barley; [12]
  Plant response rating, Barley (winter): 50
Winter barley; [13]
  Plant response rating, Barley (winter): 60
Winter wheat [2]; [14]
  Plant response rating, Wheat (winter): 0
Winter wheat [2]; [15]
  Wheat (winter) plant response rating: 0
Winter wheat [2]; [16]
  Plant response rating, Wheat (winter): 0
Italian ryegrass
  I. Ryegrass plant response rating (0 to 100 scale): 80
Italian ryegrass; [12]
  Plant response rating, I. Ryegrass: 90
Italian ryegrass; [13]
  Plant response rating, I. Ryegrass: 100
Green foxtail
  Green foxtail plant response rating (0 to 100 scale): 100
Green foxtail; [12]
  Plant response rating, Green foxtail: 100
Green foxtail; [13]
  Plant response rating, Green foxtail: 100
Winter wheat [3]
  Wheat (winter) plant response rating (0 to 100 scale): 50
Winter wheat [3]; [13]
  Plant response rating, Wheat (winter): 50
Wild oat [4]
  Wild oat plant response rating (0 to 100 scale): 50
Wild oat [4]; [12]
  Plant response rating, Wild oat: 65
Wild oat [4]; [13]
  Plant response rating, Wild oat: 85
bedstraw; [5]
  Bedstraw plant response rating: 0
bedstraw; [6]
  Bedstraw plant response rating: 0
bedstraw; [7]
  Plant response rating, Bedstraw: 2
bedstraw; [8]
  Bedstraw plant response rating: 7
bedstraw; [9]
  Bedstraw plant response rating: 7
bedstraw; [10]
  Bedstraw plant response rating: 0
bedstraw; Rate 250 g/ha, Postemergence
  Plant response rating (0 to 10; 0 is no effect, 10 is complete control), Bedstraw: 9
bedstraw; [11]
  Bedstraw plant response rating: 9
velvetleaf; [5]
  Velvetleaf plant response rating: 0
velvetleaf; [6]
  Velvetleaf plant response rating: 4
velvetleaf; [7]
  Plant response rating, Velvetleaf: 5
velvetleaf; [10]
  Velvetleaf plant response rating: 2
velvetleaf; [11]
  Velvetleaf plant response rating: 3
